Experiment [1] deals with Human immunodeficiency virus 1. Kind of experiment: Antiviral activity against HIV1 LAV in human PBM cells. Format: functional, cell-based. Conditions: Human immunodeficiency virus 1, LAV.
A short description of experiment [2]: Displacement of [125I]-alphaBgt from Torpedo californica muscle-type nAChR preincubated for 2 to 3 hrs followed by [125I]-alphaBgt addition addition measured after 5 mins. Also noted: species or system Tetronarce californica. Background: Displacement assays read how much labelled ligand stays bound in the presence of the test substance.
Experiment [3] has as its target Neuronal acetylcholine receptor subunit alpha-7 (Homo sapiens, UniProt P36544). Put plainly: Displacemet of [125I]-alphaBgt from human alpha7 nAChR expressed in rat GH4C1 cells preincubated for 2 to 3 hrs followed by [125I]-alphaBgt addition measured after 5 mins. Format: cell-based.
Experiment [4] is described as follows: Inhibition of Ca2+-ATPase (unknown origin). Also noted: species or system Homo sapiens.
In another experiment the test system is HeLa. Kind of experiment: Antiproliferative activity against human HeLa cells. Format: functional, cell-based.
Experiment [5] deals with Staphylococcus aureus. Kind of experiment: Antibacterial activity against Staphylococcus aureus. It is filed as functional.
In experiment [6] the test system is Staphylococcus aureus. Kind of experiment: Antibacterial activity against methicilin-resistant Staphylococcus aureus. It is filed as functional.
Experiment [7] has as its system Plasmodium falciparum. Put plainly: Antiprotozoal activity against chloroquine-sensitive Plasmodium falciparum D6 after 48 hrs by lactate dehydrogenase assay. Format: functional. Conditions: D6, 48 h.
Experiment [8] concerns Plasmodium falciparum. Kind of experiment: Antiprotozoal activity against chloroquine-resistant Plasmodium falciparum W2 after 48 hrs by lactate dehydrogenase assay. Format: functional. Conditions: W2, 48 h.
A short description of experiment [9]: Inhibition of pig cerebral cortex Na+/K+-ATPase. Also noted: species or system Sus scrofa.
A short description of experiment [10]: Inhibition of rabbit sercoplasmic reticulum Ca+-ATPase. Also noted: species or system Oryctolagus cuniculus.
Experiment [11] has as its system Human immunodeficiency virus 1. Kind of experiment: Inhibition of HIV-1 reverse transcriptase at 10 uM.
Experiment [12] concerns K562. Put plainly: Cytotoxicity against human K562 cells. It is filed as functional, cell-based.
Experiment [13] concerns the target Eukaryotic translation initiation factor 5A-1 (Homo sapiens) (UniProt P63241). Put plainly: Inhibition of eIF5A-1 (unknown origin) at 1 uM.
Experiment [14] relates to K562. Put plainly: Growth inhibition of human K562 cells. Format: functional.

These results are taken from ChEMBL document CHEMBL4033635, “Structure, synthesis and biological properties of the pentacyclic guanidinium alkaloids” (Bioorg Med Chem, 2017).

Values after ≈ are worked out from the molar mass of the structure shown.

Neuronal acetylcholine receptor subunit alpha-7, sequence (P36544 whole entry): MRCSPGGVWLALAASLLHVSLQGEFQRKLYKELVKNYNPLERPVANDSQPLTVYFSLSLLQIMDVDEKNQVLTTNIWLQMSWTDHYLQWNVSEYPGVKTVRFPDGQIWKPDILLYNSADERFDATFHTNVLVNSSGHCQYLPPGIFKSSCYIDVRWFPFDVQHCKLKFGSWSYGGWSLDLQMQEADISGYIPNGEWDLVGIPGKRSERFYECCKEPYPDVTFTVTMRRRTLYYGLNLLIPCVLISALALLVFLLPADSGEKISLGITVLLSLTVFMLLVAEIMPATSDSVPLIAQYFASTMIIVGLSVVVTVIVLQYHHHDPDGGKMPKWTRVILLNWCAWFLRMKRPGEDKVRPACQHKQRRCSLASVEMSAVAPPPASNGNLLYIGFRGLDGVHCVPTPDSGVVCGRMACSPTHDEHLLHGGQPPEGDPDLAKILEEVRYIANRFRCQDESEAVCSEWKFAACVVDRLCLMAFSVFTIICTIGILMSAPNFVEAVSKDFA
Eukaryotic translation initiation factor 5A-1 (Homo sapiens), sequence (P63241 whole entry): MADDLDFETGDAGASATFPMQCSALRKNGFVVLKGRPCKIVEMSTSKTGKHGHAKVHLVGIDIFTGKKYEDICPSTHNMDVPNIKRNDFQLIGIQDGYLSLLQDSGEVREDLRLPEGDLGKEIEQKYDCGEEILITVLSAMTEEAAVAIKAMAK

In experiment [1], `CC[C@H]1C=CCC[C@@]2(C[C@@H]3CC[C@@H]4[C@H](C(=O)OCCCCCCCCCCCCCCCC(=O)N(CCCN)C[C@@H](O)CCN)[C@]5(CCC[C@@H](C)O5)NC(=N2)N34)O1` had an EC50 of 40 nM and a concentration for an effect of 90% (EC90) of 120 nM.

Regarding `CCC[C@@H]1CCC[C@@]2(N=C3N[C@]4(CCC=C[C@H](CC)O4)C[C@@H]4CC[C@H]([C@@H]2C(=O)OCCCCCCCCCCCCCCCC(=O)N(CCCN)CCCCN)N34)O1`, the inhibition constant (Ki) in [2] and in experiment [3] was 8000 to 310000 nM throughout.

As to `NCCCCN(CCCN)C(=O)CCCCCCCCCCCCCCC(=O)O[C@H]1C[C@H]2C[C@@]3(CCCCO3)NC3=[N+]2[C@@H]1C[C@@]1(CCCCCO1)N3`, in experiment [4], the half-inhibitory concentration (IC50) is 1000 nM. That is a single-digit micromolar value.

Consider `CC/C=C/[C@H]1CC[C@@]2(C[C@@H]3CC[C@@H]4[C@H](C(=O)OCCCCCCCCCCCCCCCC(=O)N(CCCN)CCCCN)[C@]5(CCC[C@@H](C)O5)N=C(N2)N34)O1`, for which the concentration for half-maximal inhibition (IC50) in the experiment on HeLa lay in the range of 580 to 2100 nM.

The compound `CC[C@H]1C=CCC[C@@]2(C[C@@H]3CC[C@@H]4[C@H](C(=O)OCCCCCCCCCCCCCCCC(=O)N(CCCN)CCCN)[C@]5(CCC[C@@H](C)O5)NC(=N2)N34)O1` registered an EC50 in experiment [1] of 11 nM. The compound further had an EC90 in [1] of 46 nM. For the same compound, the MIC in the experiment on Staphylococcus aureus [5] and against Staphylococcus aureus [6] was 0.63 µg/mL (≈ 0.817 µM) each time. The IC50 was 0.11 to 0.12 µg/mL (≈ 0.143 to 0.156 µM) with Plasmodium falciparum [7], 0.11 to 0.12 µg/mL (≈ 0.143 to 0.156 µM) with Plasmodium falciparum [8], 2000 nM in experiment [9] and 10000 nM in experiment [10]. This compound had an inhibition in experiment [11] of 55 to 64%.

Regarding `NCCCCN(CCCN)C(=O)CCCCCCCCCCCCCCCc1ccc2c(c1)[C@@H]1C[C@]3(CCCCO3)NC3=[N+]1[C@@H]2C[C@@]1(CCCCO1)N3.[Cl-]`, the inhibition in [11] worked out at 64%. The IC50 with K562 [12] was 0.52 µg/mL.

Consider `CC/C=C/[C@H]1CC[C@@]2(C[C@@H]3CC[C@@H]4[C@H](C(=O)OCCCCCCCCCCCCCCC(O)C(=O)NCCCN)[C@]5(CCC[C@@H](C)O5)N=C(N2)N34)O1` (stereo partly drawn), for which the inhibition constant Ki in [2] and in experiment [3] was 8000 to 310000 nM in each case. Besides, the IC50 in the experiment on HeLa was 580 to 2100 nM.

As for `CC/C=C/[C@@H]1CC[C@]2(C[C@H]3CC[C@H]4[C@@H](C(=O)OC(CC)CCCCCCCCCCCCC[C@@H]5O[C@](O)(CCN)[C@H](O)N(CCCN)C5=O)[C@@]5(CCC[C@H](C)O5)NC(=[N+]34)N2)O1` (stereo partly drawn), the inhibition in experiment [13] was 50%.

Turning to `CC[C@H]1C=CCC[C@@]2(C[C@@H]3CC[C@@H]4C(C(=O)OC/C=C/c5ccccc5)[C@]5(CCC[C@@H](C)O5)NC(=[N+]34)N2)O1` (stereo partly drawn), the 50% growth inhibitory concentration (GI50) in the experiment with K562 [14] is under 1000 nM.

The compound `NCCCCN(CCCN)C(=O)CCCCCCCCCCCCCCC(=O)O[C@H]1C[C@H]2C[C@@]3(CCCCCO3)NC3=[N+]2[C@H]1C[C@]1(CCCCO1)N3` came in with a concentration for half-maximal inhibition (IC50) in [4] of 3000 nM.

Usually EC50 stands for the concentration that produces a half-maximal response. A lower EC50 goes with higher potency in that assay. For orientation: EC90 means the point of the concentration-response curve where the effect stands at 90%. Broadly, the Ki is a dissociation constant, usually derived from enzyme kinetics or from competition with a known ligand. Low values mean tighter binding, high ones weaker binding. The term IC50 denotes the concentration that inhibits the measured activity by half. A word on the MIC: it is the least concentration at which growth counts as inhibited. Lower therefore signals a more susceptible organism. Usually inhibition stands for the change of the read-out against control, counted positive when it falls. A low value points to little suppression. In general, GI50 refers to the concentration that inhibits growth by half.
